Experimental data published in article PMC6407917, “Identification of GSK3186899/DDD853651 as a Preclinical Development Candidate for the Treatment of Visceral Leishmaniasis” (Journal of Medicinal Chemistry, 2018).

Tests used:
Assay in all cases: biochemical
Design in all cases: species or system HEK293/K-562/placenta mixed human extract; Kinobeads chemoproteomic competition binding, quantified by TMT LC-MS/MS, dose response up to 20 uM
MAP3K15 = MAP3K15 (Homo sapiens, UniProt Q6ZN16)
SNRK = SNRK (Homo sapiens, UniProt Q9NRH2)
MAP2K6 = MAP2K6 (Homo sapiens, UniProt P52564)
EPHB3 = EPHB3 (Homo sapiens, UniProt P54753)
Chain of EPHB3 (P54753 whole entry): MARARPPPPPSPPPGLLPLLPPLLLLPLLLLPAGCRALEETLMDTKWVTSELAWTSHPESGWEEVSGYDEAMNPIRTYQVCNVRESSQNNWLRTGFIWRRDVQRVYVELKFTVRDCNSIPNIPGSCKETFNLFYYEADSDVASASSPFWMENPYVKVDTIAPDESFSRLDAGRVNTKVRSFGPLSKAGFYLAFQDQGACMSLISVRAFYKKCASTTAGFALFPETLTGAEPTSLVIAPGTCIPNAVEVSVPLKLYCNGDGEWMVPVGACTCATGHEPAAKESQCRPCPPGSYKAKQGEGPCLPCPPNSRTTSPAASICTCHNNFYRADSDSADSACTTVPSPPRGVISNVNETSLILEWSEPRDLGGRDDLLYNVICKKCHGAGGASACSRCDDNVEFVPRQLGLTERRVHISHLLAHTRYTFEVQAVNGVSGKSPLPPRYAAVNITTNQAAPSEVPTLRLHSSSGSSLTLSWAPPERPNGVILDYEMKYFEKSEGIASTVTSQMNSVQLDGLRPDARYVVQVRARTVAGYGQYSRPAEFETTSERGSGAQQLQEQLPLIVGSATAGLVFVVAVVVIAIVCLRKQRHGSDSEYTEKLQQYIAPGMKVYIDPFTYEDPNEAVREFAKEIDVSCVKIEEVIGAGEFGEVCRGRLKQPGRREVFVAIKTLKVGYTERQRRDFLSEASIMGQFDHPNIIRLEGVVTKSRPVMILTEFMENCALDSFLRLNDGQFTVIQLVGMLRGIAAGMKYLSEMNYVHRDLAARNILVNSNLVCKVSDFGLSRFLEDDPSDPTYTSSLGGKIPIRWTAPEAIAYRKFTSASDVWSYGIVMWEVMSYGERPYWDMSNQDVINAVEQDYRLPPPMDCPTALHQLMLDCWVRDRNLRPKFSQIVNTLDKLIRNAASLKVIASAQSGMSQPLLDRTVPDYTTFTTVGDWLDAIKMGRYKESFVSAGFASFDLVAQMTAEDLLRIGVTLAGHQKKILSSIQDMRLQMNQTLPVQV

PRKD1 = PRKD1 (Homo sapiens, UniProt Q15139)
GSK3A = GSK3A (Homo sapiens, UniProt P49840)
Chain of GSK3A (P49840 whole entry): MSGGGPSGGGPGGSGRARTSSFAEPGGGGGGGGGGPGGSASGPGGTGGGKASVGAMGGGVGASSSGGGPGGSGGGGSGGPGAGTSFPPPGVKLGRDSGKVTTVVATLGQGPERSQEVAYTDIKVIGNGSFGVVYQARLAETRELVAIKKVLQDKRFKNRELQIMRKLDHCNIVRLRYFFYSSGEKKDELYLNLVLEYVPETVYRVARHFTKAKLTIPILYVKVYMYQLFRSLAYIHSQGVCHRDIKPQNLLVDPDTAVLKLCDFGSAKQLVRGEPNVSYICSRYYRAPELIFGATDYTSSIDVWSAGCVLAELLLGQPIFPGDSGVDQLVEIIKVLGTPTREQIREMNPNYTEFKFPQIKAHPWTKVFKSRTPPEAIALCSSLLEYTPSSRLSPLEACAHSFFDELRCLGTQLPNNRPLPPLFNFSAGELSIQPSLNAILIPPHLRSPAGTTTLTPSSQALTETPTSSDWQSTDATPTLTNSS

FN3KRP = FN3KRP (Homo sapiens, UniProt Q9HA64)
CAMKK2 = CAMKK2 (Homo sapiens, UniProt Q96RR4)
CAMK2A = CAMK2A (Homo sapiens, UniProt Q9UQM7)
PIP4K2C = PIP4K2C (Homo sapiens, UniProt Q8TBX8)
AAK1 = AAK1 (Homo sapiens, UniProt Q2M2I8)
Chain of AAK1 (Q2M2I8 whole entry): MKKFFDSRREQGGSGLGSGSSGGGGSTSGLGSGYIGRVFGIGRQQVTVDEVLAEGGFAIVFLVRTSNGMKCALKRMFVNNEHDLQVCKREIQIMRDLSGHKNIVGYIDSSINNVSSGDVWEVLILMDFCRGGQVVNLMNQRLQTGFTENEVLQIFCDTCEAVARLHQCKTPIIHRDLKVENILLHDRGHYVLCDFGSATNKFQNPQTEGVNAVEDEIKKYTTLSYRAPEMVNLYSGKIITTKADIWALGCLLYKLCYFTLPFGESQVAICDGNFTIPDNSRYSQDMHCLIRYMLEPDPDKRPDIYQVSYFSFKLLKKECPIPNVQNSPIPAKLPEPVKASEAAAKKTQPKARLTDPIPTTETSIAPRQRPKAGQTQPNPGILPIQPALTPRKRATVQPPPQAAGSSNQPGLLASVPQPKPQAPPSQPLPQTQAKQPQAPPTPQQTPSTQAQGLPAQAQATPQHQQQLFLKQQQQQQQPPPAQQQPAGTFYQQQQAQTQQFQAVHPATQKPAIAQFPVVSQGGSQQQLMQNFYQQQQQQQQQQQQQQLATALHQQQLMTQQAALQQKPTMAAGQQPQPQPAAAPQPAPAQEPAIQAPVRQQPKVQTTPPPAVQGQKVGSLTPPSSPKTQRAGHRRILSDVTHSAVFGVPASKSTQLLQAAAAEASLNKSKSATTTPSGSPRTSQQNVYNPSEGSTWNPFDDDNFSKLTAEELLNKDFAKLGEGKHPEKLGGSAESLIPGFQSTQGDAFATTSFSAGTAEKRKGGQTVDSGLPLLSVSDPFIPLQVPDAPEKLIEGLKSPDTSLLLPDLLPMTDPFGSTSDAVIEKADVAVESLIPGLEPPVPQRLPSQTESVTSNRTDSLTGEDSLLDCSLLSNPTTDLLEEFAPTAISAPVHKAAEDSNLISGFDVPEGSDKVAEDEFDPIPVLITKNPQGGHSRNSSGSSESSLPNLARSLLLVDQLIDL

HCK = HCK (Homo sapiens, UniProt P08631)
HIPK1 = HIPK1 (Homo sapiens, UniProt Q86Z02)
MARK2 = MARK2 (Homo sapiens, UniProt Q7KZI7)
JAK2 = JAK2 (Homo sapiens, UniProt O60674)
CDK9 = CDK9 (Homo sapiens, UniProt P50750)
Chain of CDK9 (P50750 whole entry): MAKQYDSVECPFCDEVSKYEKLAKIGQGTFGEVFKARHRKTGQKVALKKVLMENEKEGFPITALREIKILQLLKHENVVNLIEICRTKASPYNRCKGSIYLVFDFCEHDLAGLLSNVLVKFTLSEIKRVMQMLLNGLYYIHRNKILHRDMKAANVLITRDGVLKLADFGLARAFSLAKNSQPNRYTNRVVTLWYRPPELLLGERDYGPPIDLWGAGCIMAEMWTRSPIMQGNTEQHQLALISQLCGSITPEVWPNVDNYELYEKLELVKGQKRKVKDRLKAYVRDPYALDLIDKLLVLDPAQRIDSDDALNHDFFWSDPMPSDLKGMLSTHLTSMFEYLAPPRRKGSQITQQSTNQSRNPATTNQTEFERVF

RAF1 = RAF1 (Homo sapiens, UniProt P04049)
NEK2 = NEK2 (Homo sapiens, UniProt P51955)
CDC42BPA = CDC42BPA (Homo sapiens, UniProt Q5VT25)
Chain of CDC42BPA (Q5VT25 whole entry): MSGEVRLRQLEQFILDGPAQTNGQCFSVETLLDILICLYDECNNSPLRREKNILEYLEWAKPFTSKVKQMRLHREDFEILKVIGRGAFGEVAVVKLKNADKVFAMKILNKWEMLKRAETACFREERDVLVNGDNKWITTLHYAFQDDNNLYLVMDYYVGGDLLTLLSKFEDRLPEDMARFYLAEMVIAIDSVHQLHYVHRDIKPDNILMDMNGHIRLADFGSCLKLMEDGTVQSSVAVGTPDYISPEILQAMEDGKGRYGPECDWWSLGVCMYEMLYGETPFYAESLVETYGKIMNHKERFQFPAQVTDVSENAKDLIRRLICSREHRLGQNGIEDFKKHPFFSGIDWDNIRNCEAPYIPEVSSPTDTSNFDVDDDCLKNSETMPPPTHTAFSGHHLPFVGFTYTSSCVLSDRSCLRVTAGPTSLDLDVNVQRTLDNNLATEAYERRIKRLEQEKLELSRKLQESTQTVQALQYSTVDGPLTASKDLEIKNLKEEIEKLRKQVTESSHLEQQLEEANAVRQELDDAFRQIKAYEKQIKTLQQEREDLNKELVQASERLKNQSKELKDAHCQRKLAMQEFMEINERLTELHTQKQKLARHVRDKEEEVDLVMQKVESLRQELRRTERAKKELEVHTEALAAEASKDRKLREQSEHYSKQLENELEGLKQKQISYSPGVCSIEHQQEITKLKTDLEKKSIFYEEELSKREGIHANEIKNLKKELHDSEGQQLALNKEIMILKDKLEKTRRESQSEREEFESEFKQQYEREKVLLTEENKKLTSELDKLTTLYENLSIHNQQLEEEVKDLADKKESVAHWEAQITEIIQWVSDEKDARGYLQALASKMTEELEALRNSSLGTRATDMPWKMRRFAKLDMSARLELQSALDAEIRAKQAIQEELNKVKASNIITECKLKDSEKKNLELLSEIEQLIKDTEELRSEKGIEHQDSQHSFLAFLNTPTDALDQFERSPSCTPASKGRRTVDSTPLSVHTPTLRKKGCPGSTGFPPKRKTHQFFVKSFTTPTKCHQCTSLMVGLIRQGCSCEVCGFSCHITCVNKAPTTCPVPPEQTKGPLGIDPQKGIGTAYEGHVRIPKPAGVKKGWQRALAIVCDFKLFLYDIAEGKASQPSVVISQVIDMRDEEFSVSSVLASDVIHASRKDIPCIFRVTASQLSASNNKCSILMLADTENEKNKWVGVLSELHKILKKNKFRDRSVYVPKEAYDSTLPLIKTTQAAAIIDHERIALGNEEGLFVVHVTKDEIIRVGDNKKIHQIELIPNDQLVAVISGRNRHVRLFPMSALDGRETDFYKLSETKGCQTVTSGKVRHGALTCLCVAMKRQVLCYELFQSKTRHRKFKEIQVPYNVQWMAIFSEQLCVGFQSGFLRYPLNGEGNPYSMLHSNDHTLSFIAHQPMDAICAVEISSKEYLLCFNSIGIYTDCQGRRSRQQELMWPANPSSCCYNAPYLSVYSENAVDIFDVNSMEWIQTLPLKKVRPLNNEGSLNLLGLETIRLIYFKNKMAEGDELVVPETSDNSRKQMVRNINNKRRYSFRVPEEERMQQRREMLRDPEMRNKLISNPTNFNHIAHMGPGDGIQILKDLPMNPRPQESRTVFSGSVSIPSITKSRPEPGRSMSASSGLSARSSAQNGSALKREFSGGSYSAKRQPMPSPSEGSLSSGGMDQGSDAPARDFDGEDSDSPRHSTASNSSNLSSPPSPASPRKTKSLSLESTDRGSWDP

AURKB = AURKB (Homo sapiens, UniProt Q96GD4)
Chain of AURKB (Q96GD4 whole entry): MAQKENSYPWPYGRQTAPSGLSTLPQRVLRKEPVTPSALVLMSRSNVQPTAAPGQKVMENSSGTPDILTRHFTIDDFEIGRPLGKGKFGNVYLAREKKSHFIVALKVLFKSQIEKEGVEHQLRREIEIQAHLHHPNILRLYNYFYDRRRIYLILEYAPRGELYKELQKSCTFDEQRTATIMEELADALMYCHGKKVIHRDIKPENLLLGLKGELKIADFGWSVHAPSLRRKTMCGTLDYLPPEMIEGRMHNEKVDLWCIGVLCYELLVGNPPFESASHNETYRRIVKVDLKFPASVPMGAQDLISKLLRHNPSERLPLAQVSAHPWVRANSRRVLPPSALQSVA

PTK2 = PTK2 (Homo sapiens, UniProt Q05397)

Measured: IC50

COc1nc(N[C@H]2CC[C@H](NS(=O)(=O)CC(C)C)CC2)nc2[nH]nc(N3CCOC[C@H]3C)c12 [compound 39, N-(trans-4-((4-Methoxy-3-((R)-3-methylmorpholino)-1H-pyrazolo[3,4-d]pyrimidin-6-yl)amino)cyclohexyl)-2-methylpropane-1-sulfonamide]
≥ 20 µM: all assays above
